23 molecules from PubChem BioAssay AID192 (DTP/NCI, 2004) can be followed below.

Values joined by “and” are separate entries in the source; they are usually repeats but may differ in a detail not shown here. Identical values can stand only once. Toxic doses and inconclusive results are not listed.

In the test the test system is BDF1 mice, B16 melanoma ip, median survival T/C. Nature of the test: NCI In Vivo Anticancer Drug Screen. Data for tumor model B16 Melanoma (intraperitoneal) in B6D2F1 (BDF1) mice. As to conditions: endpoint: median survival time, higher = longer survival. The method in brief: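 Transplantable tumor model; survival or tumor size measured; reported as T/C, treated over vehicle control.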

Where [1] appears, read: dose: 100.0 mg/kg/injection, schedule: Q01DX009 (ip), vehicle: saline.
[2] abbreviates: dose: 200.0 mg/kg/injection, schedule: Q01DX009 (ip), vehicle: saline.
Setting [3] is: dose: 400.0 mg/kg/injection, schedule: Q01DX009 (ip), vehicle: saline.
Setting [4] is: dose: 800.0 mg/kg/injection, schedule: Q01DX009 (ip), vehicle: saline.
Where [5] appears, read: dose: 12.5 mg/kg/injection, schedule: Q01DX009 (ip), vehicle: saline with Tween-80.
Setting [6] is: dose: 25.0 mg/kg/injection, schedule: Q01DX009 (ip), vehicle: saline with Tween-80.
The mark [7] stands for this setting: dose: 50.0 mg/kg/injection, schedule: Q01DX009 (ip), vehicle: saline with Tween-80.
[8] abbreviates: dose: 100.0 mg/kg/injection, schedule: Q01DX009 (ip), vehicle: saline with Tween-80.
The mark [9] stands for this setting: dose: 12.5 mg/kg/injection, schedule: Q01DX009 (ip), vehicle: Klucel (hydroxypropylcellulose) (HPC).
Setting [10] is: dose: 200.0 mg/kg/injection, schedule: Q01DX009 (ip), vehicle: saline with Tween-80.
Where [11] appears, read: dose: 25.0 mg/kg/injection, schedule: Q01DX009 (ip), vehicle: Klucel (hydroxypropylcellulose) (HPC).
Where [12] appears, read: dose: 50.0 mg/kg/injection, schedule: Q01DX009 (ip), vehicle: Klucel (hydroxypropylcellulose) (HPC).
The mark [13] stands for this setting: dose: 100.0 mg/kg/injection, schedule: Q01DX009 (ip), vehicle: Klucel (hydroxypropylcellulose) (HPC).
[14] abbreviates: dose: 200.0 mg/kg/injection, schedule: Q01DX009 (ip), vehicle: Klucel (hydroxypropylcellulose) (HPC).
Setting [15] is: dose: 400.0 mg/kg/injection, schedule: Q01DX009 (ip), vehicle: Klucel (hydroxypropylcellulose) (HPC).

As for `COc1cccc(OC)c1C(c1c(OC)cccc1OC)c1c(OC)cccc1OC`, the T/C reads like this: (dose: 25.0 mg/kg/injection, schedule: Q04DX003 (ip), vehicle: saline with Tween-80) 120 % of control; (dose: 50.0 mg/kg/injection, schedule: Q04DX003 (ip), vehicle: saline with Tween-80) 108 % of control; (dose: 100.0 mg/kg/injection, schedule: Q04DX003 (ip), vehicle: saline with Tween-80) 114 % of control.
Consider `OCC12COCN1COC2`, for which the T/C runs as follows: (dose: 12.5 mg/kg/injection, schedule: Q01DX009 (ip), vehicle: saline) 117 % of control; (dose: 25.0 mg/kg/injection, schedule: Q01DX009 (ip), vehicle: saline) 119 % of control; (dose: 50.0 mg/kg/injection, schedule: Q01DX009 (ip), vehicle: saline) 111 % of control; under setting [1], 117 % of control; under setting [2], 119 % of control.
As to `Clc1ccc2c(c1)C(N1CCOCC1)c1cc(Cl)cc(Cl)c1-2` (stereo unspecified), the T/C is, setting by setting: under setting [1], 102 % of control; under setting [2], 95 % of control; under setting [3], 90 % of control; under setting [4], 90 % of control.
On to `Nc1nc(=S)c2n[nH]nc2[nH]1`, for which the T/C is 96 % of control under setting [5], 108 % of control under setting [6], 113 % of control under setting [7] and 88 % of control under setting [8].
Consider `CCOC(=O)c1ccc(=O)[nH]c1.[Ag]`, for which the T/C reads like this: (dose: 3.13 mg/kg/injection, schedule: Q01DX009 (ip), vehicle: Klucel (hydroxypropylcellulose) (HPC)) 108 % of control; (dose: 6.25 mg/kg/injection, schedule: Q01DX009 (ip), vehicle: Klucel (hydroxypropylcellulose) (HPC)) 100 % of control; under setting [9], 91 % of control.
Take `Oc1ccc(/C=N/Nc2nnc(N/N=C/c3ccc(O)cc3O)c3ccccc23)c(O)c1`: the T/C is 101 % of control (dose: 3.13 mg/kg/injection, schedule: Q01DX009 (ip), vehicle: suspension in saline); 98 % of control (dose: 6.25 mg/kg/injection, schedule: Q01DX009 (ip), vehicle: suspension in saline); 89 % of control (dose: 12.5 mg/kg/injection, schedule: Q01DX009 (ip), vehicle: suspension in saline); 90 % of control (dose: 25.0 mg/kg/injection, schedule: Q01DX009 (ip), vehicle: suspension in saline).
Consider `COc1cc2cc3c4ccccc4cc[n+]3c(C)c2cc1OC` (tested in a mixture with another compound), for which the T/C by setting is: (dose: 5.0 mg/kg/injection, schedule: Q01DX009 (ip), vehicle: Klucel (hydroxypropylcellulose) (HPC)) 99 % of control; (dose: 10.0 mg/kg/injection, schedule: Q01DX009 (ip), vehicle: Klucel (hydroxypropylcellulose) (HPC)) 99 % of control; (dose: 20.0 mg/kg/injection, schedule: Q01DX009 (ip), vehicle: Klucel (hydroxypropylcellulose) (HPC)) 95 % of control.
Take `O=C(O)CCN1C(=O)c2ccccc2C1=O`: the T/C is 102 % of control under setting [7], 95 % of control under setting [8] and 90 % of control under setting [10].
Regarding `COc1cc(OC)c(OC)cc1/C=C\c1ccnc2ccccc12`, the T/C by setting is: under setting [1], 97 % of control; under setting [2], 105 % of control; under setting [3], 107 % of control; under setting [4], 102 % of control.
`CCN(CC)c1nc(N(CC)CC)nc(N(CC)CC)n1`: the T/C runs as follows: under setting [6], 89 % of control; under setting [7], 94 % of control.
As to `CNC(=O)Nc1ccccc1C(=O)NN`, the T/C runs as follows: under setting [11], 106 % of control; under setting [12], 100 % of control; under setting [13], 100 % of control; under setting [14], 97 % of control.
With `CN(C)/C=C(/C#N)C(=O)N1CCCC1`, the T/C reads like this: (dose: 37.5 mg/kg/injection, schedule: Q04DX003 (ip), vehicle: saline) 95 % of control; (dose: 75.0 mg/kg/injection, schedule: Q04DX003 (ip), vehicle: saline) 88 % of control; (dose: 150.0 mg/kg/injection, schedule: Q04DX003 (ip), vehicle: saline) 100 % of control.
Turning to `COC(=O)c1[nH]c(=O)[nH]c(=O)c1F`, the T/C (dose: 2.0 mg/kg/injection, schedule: Q01DX009 (ip), vehicle: saline with Tween-80) was 95 % of control; the T/C (dose: 4.0 mg/kg/injection, schedule: Q01DX009 (ip), vehicle: saline with Tween-80) was 97 % of control; the T/C (dose: 8.0 mg/kg/injection, schedule: Q01DX009 (ip), vehicle: saline with Tween-80) was 107 % of control.
Regarding `COc1cccc2c1C(=O)c1c(O)c3c(c(O)c1C2=O)C[C@@](O)(C(C)=O)C[C@@H]3OC1CC(N2CCC(OC)CC2)C(O)C(C)O1` (stereo partly specified), the T/C was 123 % of control (dose: 1.56 mg/kg/injection, schedule: Q01DX001 (ip), vehicle: water) and 162 % of control (dose: 6.25 mg/kg/injection, schedule: Q01DX001 (ip), vehicle: water).
As to `[N-]=[N+]=CC(=O)CCC(=O)C=[N+]=[N-]`, the T/C was 92 % of control (dose: 0.18 mg/kg/injection, schedule: Q01DX009 (ip), vehicle: other); 96 % of control (dose: 0.37 mg/kg/injection, schedule: Q01DX009 (ip), vehicle: other); 123 % of control (dose: 0.39 mg/kg/injection, schedule: Q01DX009 (ip), vehicle: other); 92 % of control (dose: 0.75 mg/kg/injection, schedule: Q01DX009 (ip), vehicle: other); 104 % of control (dose: 1.5 mg/kg/injection, schedule: Q01DX009 (ip), vehicle: other); 101 % of control and 117 % of control (dose: 1.56 mg/kg/injection, schedule: Q01DX009 (ip), vehicle: other).
Consider `CC/C(=C/C(F)(F)C(F)(F)C(F)(F)F)[N+](=O)[O-]`, for which the T/C was 101 % of control under setting [9], 87 % of control under setting [11] and 87 % of control under setting [12].
For `CC1(CCl)OCCO1`, the T/C is, setting by setting: under setting [12], 96 % of control; under setting [13], 100 % of control; under setting [14], 100 % of control.
With `Cc1c(Cl)cccc1NC(=O)c1cccc(C(=O)Nc2cccc(Cl)c2C)c1`, the T/C is 106 % of control under setting [13], 103 % of control under setting [14] and 93 % of control under setting [15].
The like results for `O=C(CCCl)NC(Cc1ccccc1)c1ccccc1` (stereo unspecified) were, in that order, 110 % of control, 96 % of control and 96 % of control.
Regarding `COc1ccc(C2CCC(=O)CC2C(=O)O)cc1` (stereo unspecified), the T/C is, setting by setting: (dose: 100.0 mg/kg/injection, schedule: Q04DX003 (ip), vehicle: Klucel (hydroxypropylcellulose) (HPC)) 94 % of control; (dose: 400.0 mg/kg/injection, schedule: Q04DX003 (ip), vehicle: Klucel (hydroxypropylcellulose) (HPC)) 100 % of control.
Consider `Oc1ccc(C2CCc3ccccc32)cc1` (stereo unspecified), for which the T/C under setting [13] is 96 % of control, the T/C under setting [14] is 96 % of control and the T/C under setting [15] is 100 % of control.
`O=CNNC=O`: the T/C under setting [8] is 86 % of control; the T/C under setting [10] was 95 % of control; the T/C (dose: 400.0 mg/kg/injection, schedule: Q01DX009 (ip), vehicle: saline with Tween-80) is 90 % of control.
In the case of `Nc1ccc(S(=O)(=O)N/N=C/c2ccccc2Cl)cc1`, the T/C under setting [5] is 107 % of control, the T/C under setting [6] was 102 % of control and the T/C under setting [7] is 107 % of control.
